From patent publication US4596811A, “Heterocyclic compounds, a process for their production and medicaments containing these compounds” (Ludwig Heumann & Co., GmbH, priority 1982, dated 1986)

target: T1, histamine-H2 receptors (isolated atrium) (Cavia porcellus, UniProt P47747); assay: H2-antagonistic activity, pA2-values in vitro on the isolated atrium of guinea pigs; assay type: cell-based; conditions: isolated guinea pig atrium, H2 antagonism
T1 construct: in vitro on the isolated atrium of guinea pigs; from tissue; host or cells: isolated guinea pig atrium
From the text: An accepted method for determining H2-antagonistic activity is to determine the pA2-values in vitro on the isolated atrium of guinea pigs (cf. Ariens, Molecular Pharmacology, Vol. 1, Academic Press, New York, 1964).

T1 sequence (P47747 whole entry): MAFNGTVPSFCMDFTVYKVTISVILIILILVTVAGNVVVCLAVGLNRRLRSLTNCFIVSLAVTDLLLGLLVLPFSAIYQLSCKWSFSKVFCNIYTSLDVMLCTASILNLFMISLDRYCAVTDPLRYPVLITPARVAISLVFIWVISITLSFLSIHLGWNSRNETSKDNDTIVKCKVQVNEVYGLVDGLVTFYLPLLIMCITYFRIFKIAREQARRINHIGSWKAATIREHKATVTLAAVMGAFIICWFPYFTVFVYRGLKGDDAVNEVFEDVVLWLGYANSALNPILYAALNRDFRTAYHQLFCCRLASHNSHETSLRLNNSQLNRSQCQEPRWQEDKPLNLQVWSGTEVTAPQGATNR

SMILES	Kb [µM]
CN(C)Cc1cc(CSCCC(=N)NS(=O)(=O)c2ccc(N)cc2)cs1 [Example 2, N-(p-aminobenzene-sulfonyl)-3-[(2-N,N-dimethylaminomethylthienyl-4)-methylthio]-propionamidine]	0.0794
N=C(CCCCOc1cccc(CN2CCCCC2)c1)NS(=O)(=O)c1ccc(N)cc1 [Example 10]	0.112
N=C(CCSCc1csc(CN2CCCCC2)c1)NS(=O)(=O)c1ccc(N)cc1 [Example 12]	0.0631
